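Assay format: 96-well plates, 48-hour exposure. TGI marks complete inhibition of growth.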
Tests used:
Assay in all cases: DTP human tumour cell line panel, 48 h
SK-MEL-28 melanoma = tested on: SK-MEL-28 melanoma
HCT-15 colon = tested on: HCT-15 colon
EKVX NSCLC = tested on: EKVX NSCLC
NCI-H522 lung = tested on: NCI-H522 lung
K-562 leukemia = tested on: K-562 leukemia
SR leukemia = tested on: SR leukemia
KM12 colon = tested on: KM12 colon
SNB-19 CNS = tested on: SNB-19 CNS
SN12C renal = tested on: SN12C renal
UO-31 renal = tested on: UO-31 renal
TK-10 renal = tested on: TK-10 renal
ACHN renal = tested on: ACHN renal
MOLT-4 leukemia = tested on: MOLT-4 leukemia
SK-OV-3 ovarian = tested on: SK-OV-3 ovarian
NCI-H23 lung = tested on: NCI-H23 lung
CCRF-CEM leukemia = tested on: CCRF-CEM leukemia
COLO 205 colon = tested on: COLO 205 colon
A549 NSCLC = tested on: A549 NSCLC
SK-MEL-5 melanoma = tested on: SK-MEL-5 melanoma
SK-MEL-2 melanoma = tested on: SK-MEL-2 melanoma

| SMILES | TGI (SK-MEL-28 melanoma) | TGI (HCT-15 colon) | TGI (EKVX NSCLC) | TGI (NCI-H522 lung) | TGI (K-562 leukemia) | TGI (SR leukemia) | TGI (KM12 colon) | TGI (SNB-19 CNS) | TGI (SN12C renal) | TGI (UO-31 renal) | TGI (TK-10 renal) | TGI (ACHN renal) | TGI (MOLT-4 leukemia) | TGI (SK-OV-3 ovarian) | TGI (NCI-H23 lung) | TGI (CCRF-CEM leukemia) | TGI (COLO 205 colon) | TGI (A549 NSCLC) | TGI (SK-MEL-5 melanoma) | TGI (SK-MEL-2 melanoma) |
| --- | --- | --- | --- | --- | --- | --- | --- | --- | --- | --- | --- | --- | --- | --- | --- | --- | --- | --- | --- | --- |
| CC1=CC[C@H](C)C(C)(C)C1/C=C/C(C)=C/CC[C@@]1(CO)[C@H](CCCO)/C(=C(/C)C=O)CC[C@]1(C)O (stereo not given in full) | 23.7 µM | 20.4 µM | 4.48 µM | 11.3 µM | 11.8 µM | 24.3 µM | 9.63 µM | 21.4 µM | 19.1 µM | 21.2 µM | 15.3 µM | 16.6 µM | 20.5 µM | 39.9 µM | 23 µM | 24.9 µM | 3.51 µM | 6.21 µM | 4.26 µM | 29.5 µM |
| COc1cccc(NC(=O)N/C(=C/c2ccc(N(CCC#N)CCC#N)cc2)NC(=O)c2cc([N+](=O)[O-])ccc2Cl)c1 | > 100 µM | > 100 µM | > 100 µM | > 100 µM | > 100 µM | > 100 µM | > 100 µM | > 100 µM | > 100 µM | > 100 µM | > 100 µM | > 100 µM | > 100 µM | > 100 µM | > 100 µM | > 100 µM | > 100 µM | > 100 µM | > 100 µM | > 100 µM |
| Cc1cc(S(N)(=O)=O)c(S/C(=N\Nc2ccc([N+](=O)[O-])cc2)c2ccc(Cl)cc2)cc1Cl | 4.91 µM | 77.9 µM | 28.3 µM | 11.5 µM | > 100 µM | 9.01 µM | 4.15 µM | 27 µM | 10.9 µM | 22 µM | 3.54 µM | 10.4 µM | > 100 µM | 3.93 µM | 4.91 µM | > 100 µM | > 100 µM | 7.48 µM | 33.3 µM | 9.58 µM |
